According to PubChem BioAssay AID330 (DTP/NCI, 2004):
“And” between values parts separate entries of the source, which are not always exact repeats. Equal values may be shown once. Toxic doses and inconclusive results are not listed. Rule for the calls: active = survival T/C of 150% or more; inactive = T/C below 125% in these data.

System: P388 leukemia ip, CD2F1 mice, survival T/C
Experiment: NCI In Vivo Anticancer Drug Screen. Data for tumor model P388 Leukemia (intraperitoneal) in CD2F1 (CDF1) mice
Details: endpoint: median survival time, higher = longer survival
Outline: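 Mice carrying the transplanted tumor received test compound or vehicle. Survival was recorded in each group, and the value is the treated-group measurement divided by that of the vehicle-treated control group.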

[1] = dose: 60.0 mg/kg/injection, schedule: Q01DX005 (ip), vehicle: saline with Tween-80
[2] = dose: 120.0 mg/kg/injection, schedule: Q01DX005 (ip), vehicle: saline with Tween-80
[3] = dose: 50.0 mg/kg/injection, schedule: Q01DX009 (ip), vehicle: saline
[4] = dose: 100.0 mg/kg/injection, schedule: Q01DX009 (ip), vehicle: saline
[5] = dose: 200.0 mg/kg/injection, schedule: Q01DX009 (ip), vehicle: saline

Measured: T/C

Cc1nc(C(=O)O)cc(Cl)c1C
inactive: dose: 12.5 mg/kg/injection, schedule: Q01DX009 (ip), vehicle: distilled water + Tween-80 100 % of control | dose: 25.0 mg/kg/injection, schedule: Q01DX009 (ip), vehicle: distilled water + Tween-80 100 % of control | dose: 50.0 mg/kg/injection, schedule: Q01DX009 (ip), vehicle: distilled water + Tween-80 96 % of control | dose: 100.0 mg/kg/injection, schedule: Q01DX009 (ip), vehicle: distilled water + Tween-80 100 % of control | dose: 200.0 mg/kg/injection, schedule: Q01DX009 (ip), vehicle: distilled water + Tween-80 96 % of control

O=C1C=C(c2ccccc2)Sc2ccccc2N1
inactive: dose: 50.0 mg/kg/injection, schedule: Q01DX009 (ip), vehicle: Klucel (hydroxypropylcellulose) (HPC) 95 % of control | dose: 100.0 mg/kg/injection, schedule: Q01DX009 (ip), vehicle: Klucel (hydroxypropylcellulose) (HPC) 88 % of control | dose: 200.0 mg/kg/injection, schedule: Q01DX009 (ip), vehicle: Klucel (hydroxypropylcellulose) (HPC) 87 % of control | dose: 400.0 mg/kg/injection, schedule: Q01DX009 (ip), vehicle: Klucel (hydroxypropylcellulose) (HPC) 94 % of control

CN1CCC(=NO)CC1
inactive: dose: 60.0 mg/kg/injection, schedule: Q01DX005 (ip), vehicle: saline 95 % of control | dose: 120.0 mg/kg/injection, schedule: Q01DX005 (ip), vehicle: saline 89 % of control | dose: 240.0 mg/kg/injection, schedule: Q01DX005 (ip), vehicle: saline 94 % of control

COC(=O)NCN(Cc1ccccc1)C(=O)CCCCCN
inactive: [1] 104 % of control | [2] 100 % of control | dose: 240.0 mg/kg/injection, schedule: Q01DX005 (ip), vehicle: saline with Tween-80 98 % of control

C=C(C)C1CC=C(CCCC(C)COC2OCC(OC(=O)/C(C)=C/CCC3=CCC(C(=C)C)CC3O)C(O)C2O)CC1 (centres undefined)
inactive: dose: 10.75 mg/kg/injection, schedule: Q01DX005 (ip), vehicle: Klucel (hydroxypropylcellulose) (HPC) 103 % of control | dose: 21.5 mg/kg/injection, schedule: Q01DX005 (ip), vehicle: Klucel (hydroxypropylcellulose) (HPC) 114 % of control | dose: 43.0 mg/kg/injection, schedule: Q01DX005 (ip), vehicle: Klucel (hydroxypropylcellulose) (HPC) 119 % of control

CC1=CC2OC3CC4OC(=O)/C=C/C=C/C(C(C)O)OCCC5(C)OC5C(=O)OCC2(CC1)C4(C)C31CO1 (centres undefined)
inactive: dose: 1.25 mg/kg/injection, schedule: Q01DX005 (ip), vehicle: saline + alcohol 101 % of control | dose: 2.5 mg/kg/injection, schedule: Q01DX005 (ip), vehicle: saline + alcohol 118 % of control

c1ccc2c(NCCCCCCCNc3c4ccccc4nc4ccccc34)c3ccccc3nc2c1
inactive: dose: 10.0 mg/kg/injection, schedule: Q01DX009 (ip), vehicle: other 112 % of control
active: dose: 2.5 mg/kg/injection, schedule: Q01DX009 (ip), vehicle: other 157 % of control | dose: 5.0 mg/kg/injection, schedule: Q01DX009 (ip), vehicle: other 155 % of control and 163 % of control and 175 % of control

CC(C)(C)NSc1nc2ccccc2s1
inactive: dose: 12.5 mg/kg/injection, schedule: Q01DX009 (ip), vehicle: saline with Tween-80 109 % of control | dose: 12.5 mg/kg/injection, schedule: Q04DX003 (ip), vehicle: saline with Tween-80 100 % of control | dose: 25.0 mg/kg/injection, schedule: Q01DX009 (ip), vehicle: saline with Tween-80 100 % of control | dose: 25.0 mg/kg/injection, schedule: Q04DX003 (ip), vehicle: saline with Tween-80 95 % of control | dose: 50.0 mg/kg/injection, schedule: Q01DX009 (ip), vehicle: saline with Tween-80 100 % of control | dose: 50.0 mg/kg/injection, schedule: Q04DX003 (ip), vehicle: saline with Tween-80 100 % of control and 87 % of control

CC(C)(C)C(=O)Oc1c2ccccc2cc2ccccc12
inactive: dose: 30.0 mg/kg/injection, schedule: Q01DX005 (ip), vehicle: saline with Tween-80 88 % of control | [1] 88 % of control and 89 % of control | [2] 86 % of control

C[C@]12C=CC(=O)C=C1CC[C@@H]1[C@@H]2C(=O)C[C@@]2(C)[C@H]1CC[C@]2(O)C(=O)CO
inactive: dose: 25.0 mg/kg/injection, schedule: Q01DX009 (ip), vehicle: saline 106 % of control | dose: 30.0 mg/kg/injection, schedule: Q04DX002 (sc), vehicle: Klucel (hydroxypropylcellulose) (HPC) 100 % of control and 95 % of control | dose: 44.0 mg/kg/injection, schedule: Q04DX002 (sc), vehicle: Klucel (hydroxypropylcellulose) (HPC) 100 % of control | dose: 45.0 mg/kg/injection, schedule: Q04DX002 (sc), vehicle: Klucel (hydroxypropylcellulose) (HPC) 104 % of control | dose: 50.0 mg/kg/injection, schedule: Q01DX001 (oral), vehicle: saline 93 % of control | dose: 50.0 mg/kg/injection, schedule: Q01DX005 (sc), vehicle: Klucel (hydroxypropylcellulose) (HPC) 111 % of control | [3] 106 % of control | dose: 50.0 mg/kg/injection, schedule: Q01DX009 (oral), vehicle: saline 100 % of control | dose: 67.0 mg/kg/injection, schedule: Q04DX002 (sc), vehicle: Klucel (hydroxypropylcellulose) (HPC) 100 % of control and 104 % of control | dose: 100.0 mg/kg/injection, schedule: Q01DX001 (oral), vehicle: saline 100 % of control | dose: 100.0 mg/kg/injection, schedule: Q01DX005 (sc), vehicle: Klucel (hydroxypropylcellulose) (HPC) 111 % of control | [4] 106 % of control | dose: 100.0 mg/kg/injection, schedule: Q01DX009 (oral), vehicle: saline 114 % of control | dose: 100.0 mg/kg/injection, schedule: Q04DX002 (sc), vehicle: Klucel (hydroxypropylcellulose) (HPC) 98 % of control and 107 % of control | dose: 125.0 mg/kg/injection, schedule: Q01DX001 (ip), vehicle: steriod suspending solution 98 % of control and 95 % of control | dose: 133.0 mg/kg/injection, schedule: Q01DX001 (sc), vehicle: Klucel (hydroxypropylcellulose) (HPC) 100 % of control | dose: 200.0 mg/kg/injection, schedule: Q01DX001 (oral), vehicle: saline 100 % of control | dose: 200.0 mg/kg/injection, schedule: Q01DX001 (sc), vehicle: Klucel (hydroxypropylcellulose) (HPC) 100 % of control | dose: 200.0 mg/kg/injection, schedule: Q01DX005 (sc), vehicle: Klucel (hydroxypropylcellulose) (HPC) 115 % of control | [5] 106 % of control | dose: 200.0 mg/kg/injection, schedule: Q01DX009 (oral), vehicle: saline 100 % of control | dose: 250.0 mg/kg/injection, schedule: Q01DX001 (ip), vehicle: steriod suspending solution 91 % of control and 95 % of control | dose: 300.0 mg/kg/injection, schedule: Q01DX001 (sc), vehicle: Klucel (hydroxypropylcellulose) (HPC) 107 % of control | dose: 400.0 mg/kg/injection, schedule: Q01DX001 (oral), vehicle: saline 87 % of control | dose: 400.0 mg/kg/injection, schedule: Q01DX005 (sc), vehicle: Klucel (hydroxypropylcellulose) (HPC) 115 % of control | dose: 400.0 mg/kg/injection, schedule: Q01DX009 (ip), vehicle: saline 106 % of control | dose: 400.0 mg/kg/injection, schedule: Q01DX009 (oral), vehicle: saline 114 % of control | dose: 450.0 mg/kg/injection, schedule: Q01DX001 (sc), vehicle: Klucel (hydroxypropylcellulose) (HPC) 108 % of control | dose: 500.0 mg/kg/injection, schedule: Q01DX001 (ip), vehicle: steriod suspending solution 91 % of control and 94 % of control | dose: 800.0 mg/kg/injection, schedule: Q01DX001 (oral), vehicle: saline 100 % of control | dose: 800.0 mg/kg/injection, schedule: Q01DX005 (ip), vehicle: Klucel (hydroxypropylcellulose) (HPC) 108 % of control | dose: 800.0 mg/kg/injection, schedule: Q01DX005 (sc), vehicle: Klucel (hydroxypropylcellulose) (HPC) 113 % of control | dose: 800.0 mg/kg/injection, schedule: Q01DX009 (oral), vehicle: saline 107 % of control | dose: 1000.0 mg/kg/injection, schedule: Q01DX001 (ip), vehicle: steriod suspending solution 34 % of control | dose: 1600.0 mg/kg/injection, schedule: Q01DX005 (ip), vehicle: Klucel (hydroxypropylcellulose) (HPC) 116 % of control | dose: 1600.0 mg/kg/injection, schedule: Q01DX005 (sc), vehicle: Klucel (hydroxypropylcellulose) (HPC) 100 % of control | dose: 6400.0 mg/kg/injection, schedule: Q01DX005 (sc), vehicle: Klucel (hydroxypropylcellulose) (HPC) 102 % of control

COc1ccc(CCN2C(=O)C(=O)N(c3ccc([N+](=O)[O-])cc3)C2=O)cc1OC
inactive: [3] 91 % of control | [4] 94 % of control | [5] 94 % of control

Cc1ccc(C)c(OP2(=O)NC3CCCCC3N2)c1 (centres undefined)
inactive: dose: 100.0 mg/kg/injection, schedule: Q04DX002 (ip), vehicle: Klucel (hydroxypropylcellulose) (HPC) 91 % of control | dose: 200.0 mg/kg/injection, schedule: Q04DX002 (ip), vehicle: Klucel (hydroxypropylcellulose) (HPC) 89 % of control
